In the assay the target is T1, Aldehyde dehydrogenase 1A1 (Rattus norvegicus) (UniProt P51647).
T1 sequence (whole entry): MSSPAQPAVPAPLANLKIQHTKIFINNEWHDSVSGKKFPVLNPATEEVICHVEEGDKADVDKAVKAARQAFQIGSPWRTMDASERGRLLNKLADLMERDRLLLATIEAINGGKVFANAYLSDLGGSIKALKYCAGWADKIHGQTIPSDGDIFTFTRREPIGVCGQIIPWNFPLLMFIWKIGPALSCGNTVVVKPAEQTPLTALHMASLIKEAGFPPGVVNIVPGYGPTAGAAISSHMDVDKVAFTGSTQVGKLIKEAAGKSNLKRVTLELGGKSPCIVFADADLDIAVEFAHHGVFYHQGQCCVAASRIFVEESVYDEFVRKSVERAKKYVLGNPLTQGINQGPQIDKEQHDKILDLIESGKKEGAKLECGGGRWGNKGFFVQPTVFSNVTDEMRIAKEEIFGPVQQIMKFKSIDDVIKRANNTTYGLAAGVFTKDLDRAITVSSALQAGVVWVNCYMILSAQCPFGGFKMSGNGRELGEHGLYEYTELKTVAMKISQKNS
In words: Percent inhibition of rat hepatic mitochondrial […] dehydrogenase. As to conditions: concentration not given here.

These results are taken from ChEMBL document CHEMBL1132423, “Diethylcarbamoylating/nitroxylating agents as dual action inhibitors of aldehyde dehydrogenase: a disulfiram-cyanamide merger” (J Med Chem, 1999).

Each structure is given as a SMILES string. Some results are limits rather than exact numbers.

Consider `CCOC(=O)N(OC(=O)N(CC)CC)S(=O)(=O)c1ccccc1`, for which the inhibition is above 70%.
